The results in this text go back to PMC2866084 (Journal of medicinal chemistry, 2010).

Some results are limits rather than exact numbers.

The nature of data set [1]: Double-sink PAMPA permeability. In kind it is in vitro ADME. Particulars: pH 7.4.
Data set [2] deals with Salmonella typhimurium tester strains TA98 and TA100. Briefly: Ames assay for mutagenicity and cytotoxicity screening. Type of data set: cell-based. Particulars: TA98 and TA100, with and without S-9.
A further data set relates to CD-1 mice. Description: Dose range-finding toxicity study in male and female CD-1 mice. As to conditions: for histopathology: after 7 days oral treatment; for body weights compared to vehicle-treated controls: all treated mice, 7 days oral.
Another data set is described as follows: in vivo. As to conditions: male, CD-1, mouse, po, 50 mg/kg.

What is called Papp is the rate of passage across a membrane or cell layer, normalised by area and donor concentration. In data set [1], `CCCN(CCCNc1ccnc2cc(Cl)ccc12)CC1CC1` [Compound 4] registered a Papp at 30 min, 50 μM of 11100 ± 1760 nm/s. Moreover, the “Bacterial mutagenicity, AMES test” value in data set [2] was “no increase in mutagenicity”.
For `COc1cccc(CNCCCNc2ccnc3cc(Cl)ccc23)c1O` [Compound 20, 2-{[3-(7-Chloro-quinolin-4-ylamino)-propylamino]-methyl}-6-methoxy-phenol], in data set [1], the Papp at 30 min, 50 μM was 13600 ± 2140 nm/s. In the data set with CD-1 mice, the histopathology result is on record as “no findings related to the administration of the test articles” and the “body weights compared to vehicle-treated controls” value is “remained normal”.
Regarding `CCN(CC)CCCC(C)Nc1ccnc2cc(Oc3ccccc3)ccc12` (centres unmarked) [Compound 1], the concentration at 24 h in the data set “in vivo” was < 0.0118 µM.
`Clc1ccc2c(NCCCNCc3cccc4c3OCO4)ccnc2c1` [Compound 18, N-Benzo[1,3]dioxol-4-ylmethyl-N′-(7-chloro-quinolin-4-yl)-propane-1,3-diamine] came in with an apparent permeability (Papp) at 30 min, 50 μM in data set [1] of 24000 ± 6520 nm/s. The “Bacterial mutagenicity, AMES test” value in data set [2] was “no increase in mutagenicity”. Besides, in the data set with CD-1 mice, the histopathology result is “no findings related to the administration of the test articles” and the “body weights compared to vehicle-treated controls” value is recorded as “remained normal”.
`CCN(CC)CCCC(C)Nc1ccnc2cc(C(F)(F)F)ccc12` (centres unmarked) [Compound 3] registered a Papp at 30 min, 50 μM in data set [1] of 27000 ± 1070 nm/s.
